Measurements from ChEMBL document CHEMBL4118119, “Development of novel pyridazinone-based adenosine receptor ligands” (Bioorg Med Chem Lett, 2018).

Experiments:
[1] = biological target: T1, Adenosine receptor A2b (Homo sapiens) (UniProt P29275); assay: Antagonist activity at recombinant human A2B receptor expressed in CHO cells assessed as inhibition of NECA-stimulated cAMP production at 0.001 to 1 uM by Alpha screen assay relative to control; assay type: functional, cell-based
T1 sequence (whole entry): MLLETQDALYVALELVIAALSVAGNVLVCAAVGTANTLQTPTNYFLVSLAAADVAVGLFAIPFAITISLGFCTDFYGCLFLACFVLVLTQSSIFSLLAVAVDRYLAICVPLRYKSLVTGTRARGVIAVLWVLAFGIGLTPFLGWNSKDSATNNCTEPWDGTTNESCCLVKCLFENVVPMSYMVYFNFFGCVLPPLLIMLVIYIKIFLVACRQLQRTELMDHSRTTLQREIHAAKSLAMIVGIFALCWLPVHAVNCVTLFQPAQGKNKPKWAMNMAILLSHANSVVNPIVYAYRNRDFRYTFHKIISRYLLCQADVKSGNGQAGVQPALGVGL

Adenosine receptor A3 = biological target: T2, Adenosine receptor A3 (Homo sapiens, UniProt P0DMS8); assay: Displacement of [125I]-ABMECA from recombinant human A3 receptor expressed in CHO cell membranes measured after 120 mins by scintillation counting method
T2 sequence (P0DMS8 whole entry): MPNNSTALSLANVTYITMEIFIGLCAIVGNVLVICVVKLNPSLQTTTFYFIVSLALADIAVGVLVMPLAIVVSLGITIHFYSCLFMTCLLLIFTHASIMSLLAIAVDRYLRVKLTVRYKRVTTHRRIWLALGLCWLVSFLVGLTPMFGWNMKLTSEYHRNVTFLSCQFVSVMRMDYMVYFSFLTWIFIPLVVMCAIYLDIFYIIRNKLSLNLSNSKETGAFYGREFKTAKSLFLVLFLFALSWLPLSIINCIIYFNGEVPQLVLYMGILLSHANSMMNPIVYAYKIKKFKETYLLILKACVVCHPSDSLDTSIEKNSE

Adenosine receptor A1 = biological target: T3, Adenosine receptor A1 (Homo sapiens, UniProt P30542); assay: Displacement of [3H]DPCPX from recombinant human A1 receptor expressed in CHO cell membranes measured after 90 mins by scintillation counting method
T3 sequence (P30542 whole entry): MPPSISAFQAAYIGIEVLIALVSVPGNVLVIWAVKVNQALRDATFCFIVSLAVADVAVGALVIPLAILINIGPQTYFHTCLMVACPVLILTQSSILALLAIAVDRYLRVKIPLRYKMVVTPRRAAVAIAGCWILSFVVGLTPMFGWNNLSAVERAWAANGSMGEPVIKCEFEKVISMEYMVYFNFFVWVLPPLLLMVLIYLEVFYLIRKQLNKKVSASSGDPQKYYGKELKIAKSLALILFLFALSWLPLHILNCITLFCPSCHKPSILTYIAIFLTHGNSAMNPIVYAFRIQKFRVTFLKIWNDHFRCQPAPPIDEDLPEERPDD

Adenosine receptor A2a [2] = biological target: T4, Adenosine receptor A2a (Homo sapiens, UniProt P29274); assay: Displacement of [3H]-ZM241385 from recombinant human A2A receptor expressed in CHO cell membranes measured after 60 mins by scintillation counting method
T4 sequence (P29274 whole entry): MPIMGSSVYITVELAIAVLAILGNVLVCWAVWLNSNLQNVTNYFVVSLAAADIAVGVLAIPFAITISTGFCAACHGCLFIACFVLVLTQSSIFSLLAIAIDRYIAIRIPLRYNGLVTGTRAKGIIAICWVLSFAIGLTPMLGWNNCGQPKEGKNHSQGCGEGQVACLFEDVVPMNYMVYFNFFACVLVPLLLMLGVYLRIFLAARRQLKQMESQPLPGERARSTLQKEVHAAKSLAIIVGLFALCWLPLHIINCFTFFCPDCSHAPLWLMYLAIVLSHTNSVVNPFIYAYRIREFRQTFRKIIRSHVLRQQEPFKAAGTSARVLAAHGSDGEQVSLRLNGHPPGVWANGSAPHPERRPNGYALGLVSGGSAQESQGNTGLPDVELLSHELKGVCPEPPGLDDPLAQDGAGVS

Adenosine receptor A2a [3] = biological target: T4, Adenosine receptor A2a; assay: Displacement of [3H]-ZM241385 from recombinant human A2A receptor expressed in CHO cell membranes at 1 uM measured after 60 mins by scintillation counting method relative to control
[4] = biological target: T5, Adenosine receptor A3 (Homo sapiens) (UniProt P0DMS8); assay: Displacement of [125I]-ABMECA from recombinant human A3 receptor expressed in CHO cell membranes at 1 uM measured after 120 mins by scintillation counting method relative to control
T5 sequence (whole entry): T2 sequence (P0DMS8 whole entry)

[5] = biological target: T6, Adenosine receptor A1 (Homo sapiens) (UniProt P30542); assay: Displacement of [3H]DPCPX from recombinant human A1 receptor expressed in CHO cell membranes at 1 uM measured after 90 mins by scintillation counting method relative to control
T6 sequence (whole entry): T3 sequence (P30542 whole entry)

Row | inhibition [1] [%] | Ki (Adenosine receptor A3) [nM] | Ki (Adenosine receptor A1) [nM] | Ki (Adenosine receptor A2a [2]) [nM] | inhibition (Adenosine receptor A2a [3]) [%] | inhibition [4] [%] | inhibition [5] [%] | SMILES
1 | 1 | 2930 | 113 | 2490 |  |  |  | CCn1nc(-c2nccs2)c2sccc2c1=O
2 | 1 |  | 912 |  | 2 | 2 |  | CC(C)n1nc(-c2ccccn2)c2sccc2c1=O
3 | 1 |  |  | 3140 |  | 10 | 4 | CCc1nn(CC)c(=O)c2cc(-c3ccccc3)sc12
4 | 1 |  |  |  | 7 | 14 | 3 | CCc1nn(CC)c(=O)c2ccsc12
5 | 1 |  |  |  | 12 | 1 | 16 | Nn1nc(-c2ccccc2)c2sccc2c1=O
6 | 1 |  | 1150 | 3390 |  | 1 |  | O=c1[nH]nc(-c2nccs2)c2sccc12
7 | 1 |  | 2870 |  | 15 | 5 |  | Nn1nc(-c2nccs2)c2sccc2c1=O
8 | 1 |  | 3720 |  | 1 | 1 |  | Nn1nc(-c2ccccn2)c2sccc2c1=O
9 | 1 | 2590 | 2670 |  | 17 |  |  | CCn1nc(-c2ccccc2)c2sccc2c1=O
10 | 1 |  | 3540 |  | 1 | 1 |  | Nn1nc(-c2cccs2)c2sccc2c1=O
11 | 1 |  | 782 | 2870 |  | 1 |  | CCn1nc(-c2ccccn2)c2sccc2c1=O
12 | 1 |  | 724 |  | 1 | 1 |  | CCn1nc(-c2cccs2)c2sccc2c1=O
